# Laboratory results from US20110046131A1, “PURINES AS PKC-THETA INHIBITORS” (N.V. Organon and Pharmacopeia, LLC, priority 2006, published 2011).
# pIC50, pKi: −log10 of the molar value.
# How the values were obtained:
# Type in all cases: biochemical
# PKCθ = target: T1, PKCθ (Homo sapiens, UniProt Q04759); assay: Ki Pan Vera (PV) potency for PKCθ; conditions: Ki Pan Vera (PV) of PKCθ
# T1 construct: purchased Pan Vera
# Description: (§1) For Ki Pan Vera (PV) of PKCθ, entries identified with “A” had values below 100 nM; entries identified with “B” had values below 1 μM; and entries identified with “C” had values below 10 μM.
# PKC delta = target: T2, PKC delta (Homo sapiens, UniProt Q05655); assay: Ki Pan Vera (PV) potency for PKC delta; conditions: Ki Pan Vera (PV) of PKC delta
# T2 construct: purchased Pan Vera
# T2 sequence (Q05655 whole entry): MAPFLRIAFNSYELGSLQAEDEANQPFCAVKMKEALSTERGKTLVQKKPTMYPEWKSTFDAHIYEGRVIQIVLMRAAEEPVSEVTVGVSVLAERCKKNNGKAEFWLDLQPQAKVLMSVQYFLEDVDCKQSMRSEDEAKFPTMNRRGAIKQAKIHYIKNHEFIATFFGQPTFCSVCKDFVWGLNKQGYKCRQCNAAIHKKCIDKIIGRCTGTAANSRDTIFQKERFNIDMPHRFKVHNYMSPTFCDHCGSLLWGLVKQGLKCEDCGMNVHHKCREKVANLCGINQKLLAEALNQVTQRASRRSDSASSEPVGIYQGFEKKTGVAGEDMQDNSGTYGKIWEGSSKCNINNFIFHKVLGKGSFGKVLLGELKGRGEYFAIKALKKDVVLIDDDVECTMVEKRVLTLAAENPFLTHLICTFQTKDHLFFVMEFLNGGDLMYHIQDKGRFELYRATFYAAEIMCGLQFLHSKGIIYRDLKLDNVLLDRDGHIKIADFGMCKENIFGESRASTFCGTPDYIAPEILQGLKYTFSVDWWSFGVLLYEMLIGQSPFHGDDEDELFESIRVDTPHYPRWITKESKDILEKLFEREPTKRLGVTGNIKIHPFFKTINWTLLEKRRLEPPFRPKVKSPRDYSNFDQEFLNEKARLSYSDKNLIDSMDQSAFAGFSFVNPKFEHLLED
# Description: [The source words this procedure for another target and reports this target under the same test.] as §1
# PKC alpha = target: T3, PKC alpha (Homo sapiens, UniProt P17252); assay: Ki Pan Vera (PV) potency for PKC alpha; conditions: Ki Pan Vera (PV) of PKC alpha
# T3 construct: purchased Pan Vera
# Description: [The source words this procedure for another target and reports this target under the same test.] as §1
# SGK kinase = target: T4, SGK kinase (Homo sapiens, UniProt O00141); assay: IC50 for SGK kinase (selectivity); conditions: for pIC50: read-out: IC50-SGK1
# T4 sequence (O00141 1-431): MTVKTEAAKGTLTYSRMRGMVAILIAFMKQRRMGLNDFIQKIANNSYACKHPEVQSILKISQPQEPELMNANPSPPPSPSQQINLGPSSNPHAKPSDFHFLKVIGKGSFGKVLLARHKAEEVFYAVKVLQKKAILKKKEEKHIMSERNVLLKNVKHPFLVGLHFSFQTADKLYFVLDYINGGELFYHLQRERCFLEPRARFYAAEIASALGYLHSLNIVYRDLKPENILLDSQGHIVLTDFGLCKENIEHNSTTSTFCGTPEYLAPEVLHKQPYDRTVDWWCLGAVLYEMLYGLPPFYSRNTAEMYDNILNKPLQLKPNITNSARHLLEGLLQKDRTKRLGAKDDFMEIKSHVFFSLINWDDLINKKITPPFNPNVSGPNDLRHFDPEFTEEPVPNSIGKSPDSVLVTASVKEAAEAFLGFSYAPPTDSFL
# Description: Entries identified with “1” had values above 250 nM; entries identified with “2” had values above 1 μM; entries identified with “3” had values above 10 μM.
# T1 sequence (Q04759 whole entry): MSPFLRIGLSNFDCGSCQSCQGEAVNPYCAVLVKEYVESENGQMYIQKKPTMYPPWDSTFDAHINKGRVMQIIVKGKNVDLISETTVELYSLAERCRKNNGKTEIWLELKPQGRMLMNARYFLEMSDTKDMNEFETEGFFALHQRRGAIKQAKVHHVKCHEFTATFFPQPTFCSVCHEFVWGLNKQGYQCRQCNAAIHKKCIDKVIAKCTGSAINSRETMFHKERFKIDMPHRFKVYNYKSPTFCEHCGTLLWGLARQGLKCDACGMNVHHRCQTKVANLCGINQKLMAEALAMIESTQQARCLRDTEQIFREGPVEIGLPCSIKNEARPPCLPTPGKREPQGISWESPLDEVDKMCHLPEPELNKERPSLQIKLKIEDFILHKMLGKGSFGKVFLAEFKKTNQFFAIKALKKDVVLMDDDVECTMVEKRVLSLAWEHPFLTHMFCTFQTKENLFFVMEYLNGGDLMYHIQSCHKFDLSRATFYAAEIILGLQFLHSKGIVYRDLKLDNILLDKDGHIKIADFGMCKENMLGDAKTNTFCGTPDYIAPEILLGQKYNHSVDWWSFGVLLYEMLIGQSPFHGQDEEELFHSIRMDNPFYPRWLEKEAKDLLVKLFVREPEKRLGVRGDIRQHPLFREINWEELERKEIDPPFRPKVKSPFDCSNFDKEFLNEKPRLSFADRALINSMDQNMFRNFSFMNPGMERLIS
Structure (SMILES),pKi (PKCθ),pKi (PKC delta),pKi (PKC alpha),pIC50 (SGK kinase),IC50-SGK1 (SGK kinase)
Clc1ccc(CNc2cc3c(cn2)nc(-c2c(Cl)cccc2Cl)n3CCC2CCNCC2)cc1Cl [Compound 154],> 5.00,< 6.00,< 6.00,< 6.00,–
Fc1ccc(CNc2ncc3nc(-c4c(Cl)cccc4Cl)n(C[C@@H]4CCCNC4)c3n2)cc1 [Compound 105],> 7.00,< 6.60,< 6.00,–,Inactive
Fc1ccc(CNc2ncc3nc(-c4c(F)cccc4Cl)n(C[C@@H]4CCCNC4)c3n2)cc1Cl [Compound 108],> 6.00,< 6.00,< 6.00,–,Inactive
Fc1ccc(CNc2ncc3nc(-c4c(Cl)cccc4Cl)n(CCC4CCNCC4)c3n2)cc1 [Compound 163],> 6.00,< 6.00,< 6.00,–,Inactive
Clc1cccc(Cl)c1-c1nc2cnc(NCc3ccccc3)nc2n1CC1CCNC1 (centres unmarked) [Compound 151],> 6.00,< 6.00,< 6.00,< 5.00,–
Fc1cccc(CNc2ncc3nc(-c4c(Cl)cccc4Cl)n(CC4CCNC4)c3n2)c1 (centres unmarked) [Compound 147],> 6.00,< 6.00,< 6.00,–,Inactive
Clc1ccc(CNc2ncc3nc(-c4c(Cl)cccc4Cl)n(CCC4CCNCC4)c3n2)cc1 [Compound 173],> 5.00,< 6.00,< 6.00,< 5.00,–
Fc1ccc(CNc2ncc3c(n2)C(C[C@H]2CCNC2)C(c2c(Cl)cccc2Cl)=N3)cc1 (some centres unmarked) [Compound 130],> 6.00,< 6.00,< 6.00,–,Inactive
C[C@H](Nc1ncc2nc(-c3c(Cl)cccc3Cl)n(C[C@@H]3CCCNC3)c2n1)c1ccccc1F [Compound 116],> 6.00,< 6.00,< 5.00,–,Inactive
Clc1cccc(Cl)c1-c1nc2cnc(NCc3ccco3)nc2n1CCC1CCNCC1 [Compound 214],> 5.00,< 6.00,< 6.00,< 5.00,–
Fc1ccc(CNc2ncc3nc(-c4ccccc4Cl)n(C[C@@H]4CCCNC4)c3n2)c(F)c1 [Compound 210],> 5.00,< 6.00,< 5.00,–,Inactive
Fc1ccccc1CNc1ncc2c(n1)C(C[C@H]1CCCNC1)C(c1c(Cl)cccc1Cl)=N2 (some centres unmarked) [Compound 129],> 6.00,< 6.00,< 6.00,–,Inactive
Fc1ccccc1CNc1ncc2nc(-c3c(Cl)cccc3Cl)n(CC3CCCNC3)c2n1 (centres unmarked) [Compound 117],> 6.00,< 6.00,< 6.00,–,Inactive
Fc1ccc(CNc2ncc3c(n2)C(C[C@@H]2CCCNC2)C(c2c(F)cccc2Cl)=N3)cc1 (some centres unmarked) [Compound 128],> 6.00,< 6.00,< 6.00,–,Inactive
Fc1ccccc1CNc1ncc2nc(-c3c(Cl)cccc3Cl)n(CC3CCNC3)c2n1 (centres unmarked) [Compound 150],> 6.00,< 6.00,< 6.00,–,Inactive
Fc1ccc(CNc2ncc3nc(-c4c(Cl)cccc4Cl)n(CC4CCNC4)c3n2)cc1 (centres unmarked) [Compound 158],> 6.00,< 6.00,< 6.00,< 5.00,–
CC(Nc1ncc2nc(-c3c(Cl)cccc3Cl)n(CCC3CCNCC3)c2n1)c1ccccc1 (centres unmarked) [Compound 212],> 5.00,< 5.00,< 5.00,–,Inactive
Fc1ccc(F)c(CNc2ncc3nc(-c4c(Cl)cccc4Cl)n(C[C@H]4CCNC4)c3n2)c1 [Compound 125],> 6.00,< 6.00,< 6.00,–,Inactive

Structure (SMILES),pKi (PKCθ),pKi (PKC delta),pKi (PKC alpha),pIC50 (SGK kinase),IC50-SGK1 (SGK kinase)
Fc1ccc(CNc2ncc3nc(-c4c(Cl)cccc4Cl)n(C[C@@H]4CCCNC4)c3n2)c(F)c1 [Compound 109],> 7.00,< 6.00,< 6.00,–,Inactive
Fc1cc(F)cc(CNc2ncc3nc(-c4c(Cl)cccc4Cl)n(CCC4CCNCC4)c3n2)c1 [Compound 146],> 6.00,< 6.00,< 6.00,–,Inactive
Fc1ccc(CNc2ncc3nc(-c4c(Cl)cccc4Cl)n(CCC4CCNCC4)c3n2)c(F)c1 [Compound 148],> 6.00,< 6.00,< 6.00,< 5.00,–
Fc1ccc(F)c(CNc2ncc3nc(-c4c(F)cccc4Cl)n(C[C@H]4CCNC4)c3n2)c1 [Compound 209],> 6.00,< 6.00,< 6.00,–,Inactive
Fc1ccc(CNc2cc3c(cn2)nc(-c2c(F)cccc2Cl)n3C[C@@H]2CCNC2)cc1Cl [Compound 155],> 6.00,< 6.00,< 6.00,–,Inactive
Fc1ccc(F)c(CNc2ncc3nc(-c4c(Cl)cccc4Cl)n(C[C@@H]4CCCNC4)c3n2)c1 [Compound 104],> 7.00,< 6.60,< 6.00,< 5.00,–
Fc1ccc(F)c(CNc2ncc3nc(-c4c(F)cccc4Cl)n(C[C@@H]4CCCNC4)c3n2)c1 [Compound 124],> 6.00,< 6.00,< 6.00,< 5.00,–
Clc1cc(Cl)cc(CNc2ncc3nc(-c4c(Cl)cccc4Cl)n(C[C@@H]4CCCNC4)c3n2)c1 [Compound 134],> 5.00,< 6.00,< 5.00,–,Inactive
Clc1cccc(Cl)c1-c1nc2cnc(NCc3cccs3)nc2n1C[C@H]1CCNC1 [Compound 170],> 6.00,< 6.00,< 6.00,–,Inactive
NCCCCCCn1c(-c2c(Cl)cccc2Cl)nc2cnc(NCc3ccccc3F)nc21 [Compound 122],> 6.00,< 6.00,< 5.00,–,Inactive
Fc1ccccc1CNc1ncc2nc(-c3c(F)cccc3Cl)n(C[C@H]3CCCNC3)c2n1 [Compound 162],> 6.00,< 5.00,< 6.00,–,Inactive
Fc1ccc(CNc2ncc3nc(-c4ccccc4Cl)n(C[C@@H]4CCCNC4)c3n2)cc1 [Compound 171],> 6.00,< 6.00,< 6.00,–,Inactive
Fc1cccc(Cl)c1-c1nc2cnc(NCc3cc(Cl)cc(Cl)c3)nc2n1C[C@@H]1CCCNC1 [Compound 200],> 5.00,< 6.00,< 5.00,–,Inactive
Fc1cc(Cl)ccc1CNc1ncc2nc(-c3c(Cl)cccc3Cl)n(C[C@@H]3CCCNC3)c2n1 [Compound 213],> 5.00,< 5.00,< 5.00,–,Inactive
Fc1cccc(CNc2ncc3nc(-c4c(Cl)cccc4Cl)n(CCC4CCNCC4)c3n2)c1 [Compound 126],> 6.00,< 6.00,< 6.00,< 6.00,–
C[C@H](Nc1ncc2nc(-c3ccccc3Cl)n(C[C@@H]3CCCNC3)c2n1)c1ccccc1F [Compound 217],> 6.00,< 5.00,< 5.00,–,Inactive
Fc1ccc(Cl)cc1CNc1ncc2nc(-c3c(Cl)cccc3Cl)n(C[C@@H]3CCCNC3)c2n1 [Compound 102],> 7.00,< 6.00,< 6.00,< 5.00,–
